Drawing on ChEMBL document CHEMBL1140125, “Purity-activity relationships of natural products: the case of anti-TB active ursolic acid” (2008), this text covers MIC for three molecules.

A word on the MIC: it is the smallest concentration in the dilution series that meets the test's criterion for growth inhibition. A higher MIC goes with a need for much substance.

Experiment [1] has as its system Mycobacterium tuberculosis. The experiment is described as follows: Antimycobacterial activity against Mycobacterium tuberculosis H37Rv ATCC 27294 after 7 days by microplate Alamar blue assay. It counts as functional. The following applies: 168 h. A general note: The colour change of resazurin is a common sign of viable cells or microbes.
The test system of experiment [2] is Mycobacterium tuberculosis. Kind of experiment: Antimycobacterial activity against Mycobacterium tuberculosis H37Rv GFP after 7 days by green fluorescent microplate assay. Type of experiment: functional. The settings on record: 168 h.

In brackets after ≈: the same amount, converted by molar mass.

For `C=C(C)[C@@H]1CC[C@]2(C(=O)O)CC[C@]3(C)[C@H](CC[C@@H]4[C@@]5(C)CC[C@H](O)C(C)(C)[C@@H]5CC[C@]43C)[C@@H]12` [BETULINIC ACID], the MIC in experiment [1] is above 128 µg/mL.
Still for that read-out and setting: the figure for `CC1(C)CC[C@]2(C(=O)O)CC[C@]3(C)C(=CC[C@@H]4[C@@]5(C)CC[C@H](O)C(C)(C)[C@@H]5CC[C@]43C)[C@@H]2C1` [OLEANOLIC_ACID] is 100 µg/mL (≈ 219 µM).
On to `C[C@H]1[C@H](C)CC[C@]2(C(=O)O)CC[C@]3(C)C(=CC[C@@H]4[C@@]5(C)CC[C@H](O)C(C)(C)[C@@H]5CC[C@]43C)[C@H]12` [URSOLIC ACID], for which the figures for the MIC in experiment [1] and in experiment [2] were above 256 µg/mL and above 100 µg/mL, respectively.
